Papp A→B, Papp B→A and IC50 data for eleven compounds are collected here from patent publication US10155749B2, “Substituted benzimidazolium compounds useful in the treatment of respiratory diseases” (Boehringer Ingelheim International GmbH, priority 2015, dated 2018).

The nature of series [1]: Permeability in CALU-3 cells. In kind it is in vitro ADME. Particulars: human, CALU-3 monolayers, pH 7.4, 37° C., 10 μM compound; for Papp A→B at 90 min, 10 μM: apical-to-basal; for Papp B→A at 90 min, 10 μM: basal-to-apical. As for the experimental part:
Permeability in CALU-3 Cells:
Permeability measurements across polarized, confluent CALU-3 cell monolayers grown on permeable filter supports are used to provide information on the potential of a compound to pass the lung epithelium. Apparent permeability coefficients (Papp) of the compounds across the CALU-3 cell monolayers are measured (pH 7.4, 37° C.) in apical-to-basal (AB) and basal-to-apical (BA) transport direction.
CALU-3 cells (1-2×10^5 cells/1 cm^2 area) are seeded on filter inserts (Costar transwell polycarbonate filters, 0.4 μm pore size) and cultured (for 10-12 days DMEM) until tight monolayers are formed. Compounds of interest are dissolved in appropriate solvent (DMSO, 10 mM stock solution). Stock solutions are diluted with HTP-4 buffer (128.13 mM NaCl, 5.36 mM KCl, 1 mM MgSO4, 1.8 mM CaCl2, 4.17 mM NaHCO3, 1.19 mM Na2HPO4×7H2O, 0.41 mM NaH2PO4×H2O, 15 mM HEPES, 20 mM glucose, 0.25% BSA, pH 7.4) to prepare the transport solutions (10 μM compound, final DMSO<=0.5%). The transport solution (TL) is applied to the apical or basolateral donor side for measuring A-B or B-A permeability (3 filter replicates), respectively. The receiver side contains the same buffer as the donor side. After 30 min of accommodation, samples are collected at the start t0=0 min and at the end of the experiment tn=90 min from the donor and at 0, 30, 60, and 90 min also from the receiver chamber. Volume removed is […] by HTP-4 buffer. The compound concentration in the samples is measured by HPLC-MS/MS or scintillation counting. The permeability coefficient (Papp) and efflux ratio are calculated according to: Papp [cm/s]=(concentration receiver [nM]*volume receiver [mL]/time interval [sec])*(1/filter area)*(1/donor concentration [nM]).

Series [2] concerns the target T1, ENaC (Epithelial Sodium Channel) (Mus musculus, UniProt Q61180+Q9WU38+Q9WU39).
T1 construct: Mouse kidney M-1 cells were cultivated in DMEM containing 5% FCS and 5 μM dexamethasone; endogenous in cells; host or cells: Mouse kidney M-1 cells
T1 sequence (Q61180 1-699): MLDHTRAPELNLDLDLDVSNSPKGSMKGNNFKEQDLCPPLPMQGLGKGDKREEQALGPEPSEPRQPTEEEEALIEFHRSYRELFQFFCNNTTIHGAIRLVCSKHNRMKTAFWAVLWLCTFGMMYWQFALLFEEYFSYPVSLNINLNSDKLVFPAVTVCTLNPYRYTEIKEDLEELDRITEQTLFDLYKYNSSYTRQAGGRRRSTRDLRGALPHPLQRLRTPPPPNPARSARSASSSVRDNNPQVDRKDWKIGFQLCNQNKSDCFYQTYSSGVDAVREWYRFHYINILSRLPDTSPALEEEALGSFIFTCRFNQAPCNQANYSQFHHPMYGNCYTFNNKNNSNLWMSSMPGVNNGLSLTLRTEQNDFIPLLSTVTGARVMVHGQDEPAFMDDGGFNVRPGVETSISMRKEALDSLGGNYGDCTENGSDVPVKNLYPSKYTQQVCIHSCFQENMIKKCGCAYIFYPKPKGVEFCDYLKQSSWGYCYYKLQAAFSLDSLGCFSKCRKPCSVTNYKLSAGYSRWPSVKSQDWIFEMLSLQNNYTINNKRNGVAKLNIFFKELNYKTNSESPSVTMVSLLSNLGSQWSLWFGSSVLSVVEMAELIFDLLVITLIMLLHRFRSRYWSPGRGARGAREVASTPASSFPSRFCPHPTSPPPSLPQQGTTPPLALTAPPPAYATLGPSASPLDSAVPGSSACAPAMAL
T1 sequence (Q9WU38 1-638): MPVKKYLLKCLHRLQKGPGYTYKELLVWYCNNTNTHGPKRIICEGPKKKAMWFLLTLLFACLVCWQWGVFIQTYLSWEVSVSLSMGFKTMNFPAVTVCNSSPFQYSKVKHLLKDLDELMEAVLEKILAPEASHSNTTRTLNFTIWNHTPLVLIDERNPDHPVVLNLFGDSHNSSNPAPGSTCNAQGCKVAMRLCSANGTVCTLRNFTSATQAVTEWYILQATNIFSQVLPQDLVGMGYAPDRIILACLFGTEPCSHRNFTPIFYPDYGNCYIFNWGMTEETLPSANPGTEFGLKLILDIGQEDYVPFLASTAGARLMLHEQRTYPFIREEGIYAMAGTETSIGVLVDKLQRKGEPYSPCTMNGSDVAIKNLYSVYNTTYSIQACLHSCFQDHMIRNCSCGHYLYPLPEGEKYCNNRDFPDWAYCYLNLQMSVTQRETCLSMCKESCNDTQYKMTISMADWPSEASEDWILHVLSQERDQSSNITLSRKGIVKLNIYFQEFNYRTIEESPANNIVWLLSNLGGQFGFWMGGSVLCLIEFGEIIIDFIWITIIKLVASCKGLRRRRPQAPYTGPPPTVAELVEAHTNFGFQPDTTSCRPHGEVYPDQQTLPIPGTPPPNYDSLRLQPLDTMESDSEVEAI
T1 sequence (Q9WU39 1-655): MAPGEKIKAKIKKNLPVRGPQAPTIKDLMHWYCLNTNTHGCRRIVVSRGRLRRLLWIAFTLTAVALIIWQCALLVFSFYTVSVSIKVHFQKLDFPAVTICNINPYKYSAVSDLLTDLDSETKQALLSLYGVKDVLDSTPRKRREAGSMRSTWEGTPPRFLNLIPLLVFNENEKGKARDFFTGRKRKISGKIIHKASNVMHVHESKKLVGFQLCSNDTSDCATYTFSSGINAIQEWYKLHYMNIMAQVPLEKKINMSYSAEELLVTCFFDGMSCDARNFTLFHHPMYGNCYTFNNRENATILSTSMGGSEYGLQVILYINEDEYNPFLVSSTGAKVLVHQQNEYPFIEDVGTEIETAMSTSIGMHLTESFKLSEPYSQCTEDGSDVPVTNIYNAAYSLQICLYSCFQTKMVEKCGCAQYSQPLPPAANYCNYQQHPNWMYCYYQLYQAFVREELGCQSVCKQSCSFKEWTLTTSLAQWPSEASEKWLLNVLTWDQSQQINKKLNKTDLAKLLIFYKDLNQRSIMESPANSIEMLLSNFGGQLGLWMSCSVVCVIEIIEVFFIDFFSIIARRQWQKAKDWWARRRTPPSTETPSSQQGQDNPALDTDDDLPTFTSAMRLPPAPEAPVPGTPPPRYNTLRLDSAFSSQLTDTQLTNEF
In words: Ussing Chamber assay (short circuit current, amiloride sensitive I_SC) in M-1 cells. In kind it is cell-based. As to conditions: Mouse kidney M-1 cells, apical application, 37° C. As for the experimental part:
The IC50 values of the example compounds given above were determined in the Ussing Chamber assay.
Ussing Chamber: Mouse kidney M-1 cells were cultivated in DMEM containing 5% FCS and 5 μM dexamethasone for 10 to 12 days on polyester transwell filters. Filters were inserted into a teflon-coated well-plate which fit into the ussing chamber system. Prior to measurement the medium of M-1 cells was replaced with Caco-2 transport buffer (Invitrogen, Germany). During measurements, the Ussing chamber temperature was kept at 37° C. Short circuit currents (I_sc) were measured in the voltage-clamp mode with the software package Lab View for data acquisition and analysis. The transepithelial electrical resistance (TEER) was determined by the application of voltage steps of ±5 mV every 5 sec. Compounds were administered at a final concentration of 3 μM or at increasing concentrations (1-3-10 μM) to the apical solution. At the end of each experiment the amiloride sensitive I_SC was measured by adding 3 μM amiloride to the apical compartment. Results are expressed as inhibition in percent of the amiloride effect or as IC50.

Broadly, the Papp A→B is the apparent permeability from the apical to the basolateral side of a cell layer. Low values mean slow passage, high ones fast passage. For orientation: Papp B→A means how fast a substance crosses the layer from the basolateral side. The IC50 is the midpoint of a concentration-inhibition curve. Read a low IC50 as higher potency. In series [1], `CC[n+]1c(CNC(=O)c2nc(Cl)c(N)nc2N)n(CCO)c2cc(OCC(=O)NCCC[n+]3cccc([O-])c3)ccc21.O=C([O-])C(F)(F)F` [Example 1.01] had a Papp A→B at 90 min, 10 μM of 0.04 ×10⁻⁶ cm/s and a Papp B→A at 90 min, 10 μM of 0.06 ×10⁻⁶ cm/s. This compound displayed an IC50 in series [2] of 2 nM.

As for `CCn1c(CNC(=O)c2nc(Cl)c(N)nc2N)[n+](CC)c2ccc(OCCNC(=O)[C@H](C)NC)cc21.Cl.[Cl-]` [Example 6.02], in series [1], the Papp A→B at 90 min, 10 μM is 0.08 ×10⁻⁶ cm/s and the Papp B→A at 90 min, 10 μM was 0.06 ×10⁻⁶ cm/s. This compound showed an IC50 in series [2] of 1 nM.

Turning to `CCn1c(CNC(=O)c2nc(Cl)c(N)nc2N)[n+](CC)c2ccc(OCCNC(=O)CCN(C)C)cc21.Cl` [Example 4.01], in series [1], the apparent permeability from apical to basolateral (Papp A→B) at 90 min, 10 μM is 0.2 ×10⁻⁶ cm/s and the Papp B→A at 90 min, 10 μM was determined as 0.2 ×10⁻⁶ cm/s. Besides, in series [2], it took 1 nM to reach half-maximal inhibition (IC50).

In series [1], `CCn1c(CNC(=O)c2nc(Cl)c(N)nc2N)[n+](CC)c2cc(C(=O)N3CCOCC3)c(N3CCOCC3)cc21` [Example 5.02] displayed a Papp A→B at 90 min, 10 μM of 0.09 ×10⁻⁶ cm/s and a Papp B→A at 90 min, 10 μM of 0.1 ×10⁻⁶ cm/s. Moreover, in series [2], the IC50 worked out at 3 nM.

For `CCNC(=O)c1cc2c(cc1OCC(=O)NCCN(C)C)n(CC)c(CNC(=O)c1nc(Cl)c(N)nc1N)[n+]2CC.Cl.[Cl-]` [Example 3.17], in series [1], the Papp A→B at 90 min, 10 μM was determined as 0.08 ×10⁻⁶ cm/s and the Papp B→A at 90 min, 10 μM stood at 0.08 ×10⁻⁶ cm/s. This compound came in with an IC50 in series [2] of 15 nM.

In series [1], `CC[n+]1c(CNC(=O)c2nc(Cl)c(N)nc2N)n(CC2CCCCC2)c2cc(OCCOP(=O)(O)CCC[N+](C)(C)C)ccc21` [Example 1.12] showed a Papp A→B at 90 min, 10 μM of 0.1 ×10⁻⁶ cm/s and a Papp B→A at 90 min, 10 μM of 0.04 ×10⁻⁶ cm/s. This compound showed an IC50 in series [2] of 8 nM.

In the case of `CC[n+]1c(CNC(=O)c2nc(Cl)c(N)nc2N)n(CC2CC2)c2cc(OCC(=O)N(C)Cc3nc(C)ccc3O)ccc21` [Example 1.08], in series [1], the Papp A→B at 90 min, 10 μM came out at 0.08 ×10⁻⁶ cm/s and the Papp B→A at 90 min, 10 μM was 0.2 ×10⁻⁶ cm/s. This compound also registered an IC50 in series [2] of 1 nM.

On to `CCn1c(CNC(=O)c2nc(Cl)c(N)nc2N)[n+](CC)c2ccc(C(=O)NCCN(C)C)cc21.Cl.[Cl-]` [Example 3.06], for which, in series [1], the Papp A→B at 90 min, 10 μM was found to be 0.02 ×10⁻⁶ cm/s and the Papp B→A at 90 min, 10 μM was found to be 0.03 ×10⁻⁶ cm/s. In series [2], this compound displayed an IC50 of 1 nM.

As for `CCCCCCN1CCC(NC(=O)c2cc3c(cc2F)n(CC)c(CNC(=O)c2nc(Cl)c(N)nc2N)[n+]3CC)CC1.O=CO.O=C[O-]` [Example 10.01], in series [1], the Papp A→B at 90 min, 10 μM worked out at 0.3 ×10⁻⁶ cm/s and the Papp B→A at 90 min, 10 μM worked out at 0.3 ×10⁻⁶ cm/s. The same compound registered an IC50 in series [2] of 1 nM.

As to `CCCCCCN(C)C(=O)c1cc2c(cc1O[C@H]1COC[C@@H]1O)n(CCO)c(CNC(=O)c1nc(Cl)c(N)nc1N)[n+]2CC.O=C([O-])C(F)(F)F` [Example 1.15], in series [1], the Papp A→B at 90 min, 10 μM is 0.2 ×10⁻⁶ cm/s and the Papp B→A at 90 min, 10 μM came to 0.08 ×10⁻⁶ cm/s. The same compound returned an IC50 in series [2] of 8 nM.

With `CCn1c(CNC(=O)c2nc(Cl)c(N)nc2N)[n+](CC)c2ccc(OCC(=O)N(Cc3nc(C)ccc3O)C[C@H](C)O)cc21.O=C([O-])C(F)(F)F` [Example 3.05], in series [1], the Papp A→B at 90 min, 10 μM worked out at 0.2 ×10⁻⁶ cm/s and the Papp B→A at 90 min, 10 μM was found to be 0.3 ×10⁻⁶ cm/s. In series [2], this compound had an IC50 of 2 nM.
